Assay results as given in PubChem BioAssay (NCI).
Where “and” joins values, the source holds several entries; their conditions need not be identical. Equal values may be shown once.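 Each compound was tested at five concentrations against cells in 96-well plates for 48 hours. GI50 = concentration required for 50% inhibition of growth. The concentration for full growth arrest is given as TGI.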

Test system: MDA-MB-468 breast
Test: NCI tumour cell line growth inhibition, 48 h

| Compound | GI50 | TGI |
| --- | --- | --- |
| COc1cc2cc(Oc3ccc(NC(=O)Nc4cccc(C(F)(F)F)c4)cc3)c(C)nc2cc1OCCN1CCCCC1 | 1.59 µM | 3.21 µM |
| C[C@@H](c1ccc2nccn2c1)n1nnc2ncc(-c3cnn(C)c3)nc21 | 38.6 µM | > 100 µM |
| Cn1cc(-c2ccc(=O)n(Cc3cccc(-c4ncc(OCCN5CCOCC5)cn4)c3)n2)cn1 | 14.4 µM | 86.8 µM |
| CCC1(OC(=O)CN2CCN(CCO)CC2)C(=O)OCc2c1cc1n(c2=O)Cc2cc3ccccc3nc2-1 (configuration not stated) | 0.149 µM | 0.449 µM |
| COc1ccc(/C(=C/c2cc(OC)c(OC)c(OC)c2)[N+](=O)[O-])cc1 | 2.01 µM | 4.78 µM |
| CCCCCCCCCCCCc1ccc(C(=O)/C=C/C(=O)O)cc1 | 1.66 µM | 3.35 µM |
| COc1ccccc1C(=O)/C=C/c1cc2cccc(OC)c2[nH]c1=O | 0.104 µM | 2.01 µM |
| CCCCCCCCCCCCCCCCCCNC(=O)[C@H]1CSC(c2ccc(OC)c(F)c2)N1 (some centres not stated) | 18.6 µM | > 50.9 µM |
| C[C@H]1[C@H](OC(=O)CCC(=O)O)O[C@@H]2O[C@]3(C)CC[C@H]4[C@H](C)CC[C@@H]1[C@@]24OO3 | 2.86 µM | 24.7 µM |
| CC1(C)N=C(N)N=C(N)N1c1cccc(/C=C/C=C/c2cccc([N+](=O)[O-])c2)c1 | 0.346 µM | 12 µM |
| COC(=O)[C@]12CC[C@@H](C)[C@H](C)[C@@H]1C1=CC[C@@H]3[C@@]4(C)CC(=O)[C@H](O)[C@@]5(C)COC(=C45)C[C@@]3(C)[C@]1(C)CC2 | 14.9 µM | 30.5 µM |
| COc1ccc(/C=C2\CN(C(=O)CCN3CCC(=NO)CC3)C/C(=C\c3ccc(OC)cc3)C2=O)cc1 | 2.01 µM | 4.58 µM |
| CS(=O)(=O)c1nccc(-c2c(-c3ccc(F)c(OCCc4ccc(F)cc4)c3)nc3sccn23)n1 | 1.81 µM | 3.53 µM |
| COc1cc(-c2cc(C(=O)N3CCN(C(=O)c4ccccc4NCc4ccco4)CC3)nc3cc(-c4ccccc4)nn23)cc(OC)c1OC | 2.32 µM | 7.2 µM |
| O=C1c2cc3c(cc2-c2c1c1cc(Cl)c(Cl)cc1c(=O)n2CCCn1ccnc1)OCO3 | < 0.01 µM | 0.0458 µM |
| COc1cc2cc(Oc3ccc(NC(=O)Nc4ccc(F)c(C(F)(F)F)c4)cc3)c(C)nc2cc1OCCN1CCCCC1 | 1.47 µM | 2.92 µM |
| O/N=C1\CCc2cc(-c3nc(C4CCNCC4)[nH]c3-c3ccncc3)ccc21 | > 25 µM | > 25 µM |
| COc1ccc(N(C)c2nc(C)nc3ccccc23)cc1 | < 0.01 µM | < 0.01 µM |
| O=C1/C(=C\c2ccc(Cl)cc2)CN(C(=S)Nc2ccccc2)C/C1=C\c1ccc(Cl)cc1 | 0.457 µM | 1.66 µM |
| COc1cc(CCc2cc(NC(=O)c3ccc(N4C[C@@H](C)N[C@@H](C)C4)cc3)n[nH]2)cc(OC)c1 | > 10 µM and 8.1 µM | > 10 µM and 20.8 µM |
| Cc1ccc(S(=O)(=O)NC(CCC(=O)Nc2ccc(Cl)cc2)C(=O)Nc2ccc(Cl)cc2)cc1 (configuration not stated) | 1.29 µM | 6.53 µM |
| COc1ccc([C@H]2C(=O)N(c3cc(OC)c(OC)c(OC)c3)[C@@H]2c2ccc(OC)c(O)c2)cc1 | 0.023 µM | 0.0628 µM |
| OB([O][Hg][c]1ccccc1)[O][Hg][c]1ccccc1 | 0.0885 µM | 0.303 µM |
| COc1cc2c(cc1OC)C(=O)C(Br)CC2 (configuration not stated) | 1.28 µM | 3.57 µM |
| N#C/C(=C\c1c(-c2ccccc2)[nH]c2ccccc12)C(=O)c1ccc(Cl)cc1 | 0.527 µM | 6.29 µM |
| Nc1cccc2c1C(=O)N(C1CCC(=O)NC1=O)C2=O (configuration not stated) | > 100 µM | > 100 µM |
